Measurements from patent US6008245A, “Sulfonamide-substituted benzopyran derivatives, processes for their preparation, their use as a medicament, and pharmaceutical preparations comprising them” (priority 1997, dated 1999).

target: T1, human IsK protein (UniProt P15382+P70057); assay: cell-based; details: human IsK expressed in Xenopus oocytes; voltage jumps to -10 mV lasting 15 s; pH 7.5; room temperature; Hill equation
T1 construct: expressed in transfected cells; host or cells: Xenopus laevis oocytes injected with in vitro synthesized IsK RNA

Row | Compound | IC50 [nM]
1 | CN([C@@H]1c2cc(OCc3ccccc3)ccc2OC(C)(C)[C@H]1O)S(C)(=O)=O (racemic) [Example 1, (±)-trans-N-(6-Benzyloxy-3-hydroxy-2,2-dimethylchroman-4-yl)-N-methylmethanesulfonamide] | 200
2 | CC(=O)O[C@H]1[C@H](N(C)S(C)(=O)=O)c2cc(OCc3ccccc3)ccc2OC1(C)C (racemic) [Example 2, (±)-trans-N-(6-Benzyloxy-3-acetoxy-2,2-dimethylchroman-4-yl)-N-methyl-methanesulfonamide] | 13000
3 | CO[C@H]1[C@H](N(C)S(C)(=O)=O)c2cc(OCc3ccccc3)ccc2OC1(C)C (racemic) [Example 3, (±)-trans-N-(6-Benzyloxy-3-methoxy-2,2-dimethylchroman-4-yl)-N-methyl-methanesulfonamide] | 6500
4 | CCCCOc1ccc2c(c1)[C@@H](N(C)S(C)(=O)=O)[C@H](O)C(C)(C)O2 (racemic) [Example 5, (±)-trans-N-(6-Butoxy-3-hydroxy-2,2-dimethylchroman-4-yl)-N-methyl-methanesulfonamide] | 250
5 | CCCCOc1ccc2c(c1)[C@@H](N(C)S(C)(=O)=O)[C@H](OC(C)=O)C(C)(C)O2 (racemic) [Example 6, (±)-trans-N-(3-Acetoxy-6-butoxy-2,2-dimethylchroman-4-yl)-N-methyl-methanesulfonamide] | > 10000
6 | CCCCN([C@@H]1c2cc(OCc3ccccc3)ccc2OC(C)(C)[C@H]1O)S(C)(=O)=O (racemic) [Example 10, (±)-trans-N-(6-Benzyloxy-3-hydroxy-2,2-dimethylchroman-4-yl)-N-butyl-methanesulfonamide] | 400
7 | COC(=O)CN([C@@H]1c2cc(OCc3ccccc3)ccc2OC(C)(C)[C@H]1O)S(C)(=O)=O (racemic) [Example 12, Methyl (±)-trans-[(6-benzyloxy-3-hydroxy-2,2-dimethylchroman-4-yl)-methanesulfonylamino]acetate] | 800
8 | CCCCOc1ccc2c(c1)[C@@H](N(CC)S(C)(=O)=O)[C@H](O)C(C)(C)O2 (racemic) [Example 14, (±)-trans-N-(6-Butoxy-3-hydroxy-2,2-dimethylchroman-4-yl)-N-ethyl-methanesulfonamide] | 200
9 | CC(=O)O[C@H]1[C@H](N(C)S(C)(=O)=O)c2cc(OCCCC(F)(F)F)ccc2OC1(C)C (racemic) [Example 21, (±)-trans-N-[3-Acetoxy-6-(4,4,4-trifluorobutoxy)-2,2-dimethylchroman-4-yl]-N-methyl-methanesulfonamide] | ~10000
10 | CN(C1=CC(C)(C)Oc2ccc(OCc3ccccc3)cc21)S(C)(=O)=O [Example 4, N-(6-Benzyloxy-2,2-dimethyl-2H-chromen-4-yl)-N-methyl-methanesulfonamide] | 1600
11 | CCCCOc1ccc2c(c1)C(N(C)S(C)(=O)=O)=CC(C)(C)O2 [Example 7, N-(6-Butoxy-2,2-dimethyl-2H-chromen-4-yl)-N-methyl-methanesulfonamide] | 1600
12 | CCCOc1ccc2c(c1)C(N(C)S(C)(=O)=O)=CC(C)(C)O2 [Example 9, N-(6-Propoxy-2,2-dimethyl-2H-chromen-4-yl)-N-methyl-methanesulfonamide] | 2600
13 | CCCCN(C1=CC(C)(C)Oc2ccc(OCc3ccccc3)cc21)S(C)(=O)=O [Example 11] | 1600
14 | CCCCOc1ccc2c(c1)C(N(CC)S(C)(=O)=O)=CC(C)(C)O2 [Example 15, N-(6-Butoxy-2,2-dimethyl-2H-chromen-4-yl)-N-ethyl-methanesulfonamide] | 1300
15 | CCCCOc1ccc2c(c1)[C@@H](N(C)S(C)(=O)=O)[C@H](O)C(C)(C)O2 [Example 16, (3S, 4R)-(-)-N-(6-Butoxy-3-hydroxy-2,2-dimethylchroman-4-yl)-N-methyl-methanesulfonamide] | 400
16 | CCS(=O)(=O)N(C)[C@@H]1c2cc(OCc3ccccc3)ccc2OC(C)(C)[C@H]1O [Example 17, (3S, 4R)-(-)-N-(6-Benzyloxy-3-hydroxy-2,2-dimethylchroman-4-yl)-N-methyl-ethanesulfonamide] | 400
17 | CCS(=O)(=O)N(C)[C@H]1c2cc(OCCCC(F)(F)F)ccc2OC(C)(C)[C@@H]1O [Example 18, (3R, 4S)-(+)-N-[-3-Hydroxy-2,2-dimethyl-6-(4,4,4-trifluorobutoxy)chroman-4-yl]-N-methyl-ethanesulfonamide] | 100
18 | CN(C1=CC(C)(C)Oc2ccc(OCCCC(F)(F)F)cc21)S(C)(=O)=O [Example 22, N-[6-(4,4,4-Trifluorobutoxy)-2,2-dimethyl-2H-chromen-4-yl]-N-methyl-methanesulfonamide] | 600
19 | CC1(C)Oc2ccc(OCCCC(F)(F)F)cc2[C@H](NS(C)(=O)=O)[C@H]1O [Example 23a, (3R,4S)-N-[3-Hydroxy-2,2-dimethyl-6-(4,4,4-trifluoro-butoxy)-chroman-4-yl]-methanesulfonamide] | 1700

system: IKs; assay: not given; details: cited from earlier work

Row | Compound | blocking action on the IKs
20 | CN1CCN(CCCCN2C(=O)CN(/N=C/c3ccc(-c4ccc(Cl)cc4)o3)C2=O)CC1 [azimilide] | blocking action on the IKs

system: K+ (ATP) channel; assay: not given; details: known compounds; cited from earlier work

Row | Compound | action on ATP-sensitive K+ channels
21 | CC1(C)Oc2ccc(C#N)cc2[C@@H](N2CCCC2=O)[C@@H]1O (relative stereo) [cromakalim] | openers of ATP-sensitive K^+ channels

system: IKr; assay: not given; details: class III antiarrhythmics; cited from earlier work

Row | Compound | IKr block
22 | CC(C)NC[C@@H](O)c1ccc(NS(C)(=O)=O)cc1 [d-sotalol] | block IKr predominantly or exclusively
